{"source": "PubChem BioAssay AID1963980", "about": "(Molecular Pharmacology Branch, DTP, NCI, 2024)", "test_system": "475296-252-R-J1-PDC spheroid viability", "assay": "Anticancer human tumor 475296-252-R-J1-PDC patient-derived rectal carcinoma cell line growth inhibition [PI3K]", "details": "spheroids with HUVEC and MSC; for IC50: curve of first compound; for viability, T/C: stronger effect = lower value", "in_short": "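Tumor cells grown as multi-cell spheroids with HUVEC endothelial cells and MSC fibroblast-like stroma were treated with targeted agents combined with inavolisib, alpelisib, duvelisib or copanlisib. Doses fell in half-log steps from near clinical Cmax, else from 10 microM. Viability was measured.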"}
{"compound": "Cn1ncc(Cl)c1-c1cc(C(=O)NC(CN)Cc2cccc(F)c2)sc1Cl", "note": "(configuration not stated) + CC(Nc1ccc2c(c1)OCCn1cc(N3C(=O)OCC3C(F)F)nc1-2)C(N)=O;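 note: spheroids exposed to agents for seven days before readout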", "values": [{"measurement": "IC50", "setting": "second compound 0.00316 µM", "value": "> 10", "unit": "µM"}, {"measurement": "IC50", "setting": "second compound 0.01 µM", "value": "> 10", "unit": "µM"}, {"measurement": "IC50", "setting": "second compound 0.0316 µM", "value": "> 10", "unit": "µM"}, {"measurement": "IC50", "setting": "second compound 0.1 µM", "value": "> 10", "unit": "µM"}, {"measurement": "IC50", "setting": "second compound 0.316 µM", "value": "> 10", "unit": "µM"}, {"measurement": "IC50", "setting": "second compound 1 µM", "value": 5.46, "unit": "µM"}, {"measurement": "viability, T/C", "setting": "second compound 0.00316 µM, first compound 0.0316 µM", "value": 87.7, "unit": "%"}, {"measurement": "viability, T/C", "setting": "second compound 0.00316 µM, first compound 0.1 µM", "value": 68.7, "unit": "%"}, {"measurement": "viability, T/C", "setting": "second compound 0.00316 µM, first compound 0.316 µM", "value": 76.2, "unit": "%"}, {"measurement": "viability, T/C", "setting": "second compound 0.00316 µM, first compound 1 µM", "value": 63.4, "unit": "%"}, {"measurement": "viability, T/C", "setting": "second compound 0.00316 µM, first compound 3.16 µM", "value": 65, "unit": "%"}, {"measurement": "viability, T/C", "setting": "second compound 0.00316 µM, first compound 10 µM", "value": 67.6, "unit": "%"}, {"measurement": "viability, T/C", "setting": "second compound 0.01 µM, first compound 0.0316 µM", "value": 105, "unit": "%"}, {"measurement": "viability, T/C", "setting": "second compound 0.01 µM, first compound 0.1 µM", "value": 78.6, "unit": "%"}, {"measurement": "viability, T/C", "setting": "second compound 0.01 µM, first compound 0.316 µM", "value": 74.1, "unit": "%"}, {"measurement": "viability, T/C", "setting": "second compound 0.01 µM, first compound 1 µM", "value": 73, "unit": "%"}, {"measurement": "viability, T/C", "setting": "second compound 0.01 µM, first compound 3.16 µM", "value": 73.8, "unit": "%"}, {"measurement": "viability, T/C", "setting": "second compound 0.01 µM, first compound 10 µM", "value": 70.5, "unit": "%"}, {"measurement": "viability, T/C", "setting": "second compound 0.0316 µM, first compound 0.0316 µM", "value": 92.6, "unit": "%"}, {"measurement": "viability, T/C", "setting": "second compound 0.0316 µM, first compound 0.1 µM", "value": 88.1, "unit": "%"}, {"measurement": "viability, T/C", "setting": "second compound 0.0316 µM, first compound 0.316 µM", "value": 63.7, "unit": "%"}, {"measurement": "viability, T/C", "setting": "second compound 0.0316 µM, first compound 1 µM", "value": 67.4, "unit": "%"}, {"measurement": "viability, T/C", "setting": "second compound 0.0316 µM, first compound 3.16 µM", "value": 52.8, "unit": "%"}, {"measurement": "viability, T/C", "setting": "second compound 0.0316 µM, first compound 10 µM", "value": 60.5, "unit": "%"}, {"measurement": "viability, T/C", "setting": "second compound 0.1 µM, first compound 0.0316 µM", "value": 90.7, "unit": "%"}, {"measurement": "viability, T/C", "setting": "second compound 0.1 µM, first compound 0.1 µM", "value": 104, "unit": "%"}, {"measurement": "viability, T/C", "setting": "second compound 0.1 µM, first compound 0.316 µM", "value": 86.1, "unit": "%"}, {"measurement": "viability, T/C", "setting": "second compound 0.1 µM, first compound 1 µM", "value": 69.3, "unit": "%"}, {"measurement": "viability, T/C", "setting": "second compound 0.1 µM, first compound 3.16 µM", "value": 59.4, "unit": "%"}, {"measurement": "viability, T/C", "setting": "second compound 0.1 µM, first compound 10 µM", "value": 52.9, "unit": "%"}, {"measurement": "viability, T/C", "setting": "second compound 0.316 µM, first compound 0.0316 µM", "value": 90.7, "unit": "%"}, {"measurement": "viability, T/C", "setting": "second compound 0.316 µM, first compound 0.1 µM", "value": 94.3, "unit": "%"}, {"measurement": "viability, T/C", "setting": "second compound 0.316 µM, first compound 0.316 µM", "value": 85.7, "unit": "%"}, {"measurement": "viability, T/C", "setting": "second compound 0.316 µM, first compound 1 µM", "value": 69.5, "unit": "%"}, {"measurement": "viability, T/C", "setting": "second compound 0.316 µM, first compound 3.16 µM", "value": 72.8, "unit": "%"}, {"measurement": "viability, T/C", "setting": "second compound 0.316 µM, first compound 10 µM", "value": 51.5, "unit": "%"}, {"measurement": "viability, T/C", "setting": "second compound 1 µM, first compound 0.0316 µM", "value": 92.3, "unit": "%"}, {"measurement": "viability, T/C", "setting": "second compound 1 µM, first compound 0.1 µM", "value": 79, "unit": "%"}, {"measurement": "viability, T/C", "setting": "second compound 1 µM, first compound 0.316 µM", "value": 84.1, "unit": "%"}, {"measurement": "viability, T/C", "setting": "second compound 1 µM, first compound 1 µM", "value": 76.1, "unit": "%"}, {"measurement": "viability, T/C", "setting": "second compound 1 µM, first compound 3.16 µM", "value": 62, "unit": "%"}, {"measurement": "viability, T/C", "setting": "second compound 1 µM, first compound 10 µM", "value": 36.6, "unit": "%"}]}
